Results on 15 molecules are retold here after patent US20240425517A1, “NOVEL COMPOUND FOR DEGRADATION OF TARGET PROTEIN OR POLYPEPTIDE BY POLYUBIQUITINATION” (PRAZER THERAPEUTICS INC., priority 2021, published 2024).

A value given as a limit tells only on which side of the number the result lay.

For assay [1], the target named is T1, Aurora A proteins (Homo sapiens, UniProt O14965).
T1 construct: endogenous in cells; host or cells: MM.1S
T1 sequence (O14965 1-403): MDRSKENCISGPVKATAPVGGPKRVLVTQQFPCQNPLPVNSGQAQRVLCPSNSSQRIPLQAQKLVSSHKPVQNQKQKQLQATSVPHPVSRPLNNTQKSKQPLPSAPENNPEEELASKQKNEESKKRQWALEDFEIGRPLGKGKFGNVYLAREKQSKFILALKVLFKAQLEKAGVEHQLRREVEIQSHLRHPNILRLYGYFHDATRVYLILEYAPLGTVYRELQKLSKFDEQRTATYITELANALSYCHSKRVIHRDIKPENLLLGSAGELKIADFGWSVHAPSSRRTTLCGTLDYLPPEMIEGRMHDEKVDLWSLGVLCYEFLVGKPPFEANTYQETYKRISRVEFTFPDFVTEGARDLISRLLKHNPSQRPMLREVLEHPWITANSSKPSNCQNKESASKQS
The experiment in a line: Degradation of Aurora A protein in MM.1S cell lines (Western blot densitometry). The format is cell-based. The note with it: MM1.S, 24 h, read-out: Aurora A degrading capacity (%). The procedure: Specifically, the MM.1S cells were cultured in RPMI-1640 medium containing 10% fetal bovine serum (FBS), 1% penicillin, and streptomycin (100 U/mL), transferred to a 6-well plate, and after 24 hours, the Aurora A degraders were diluted in the RPMI culture medium and cells were treated with 5 μM concentration thereof. After treatment, the cells were incubated in a CO2 incubator for 24 hours. […] After cell culture was completed according to the experimental conditions, the cells were collected and centrifuged at 1,800 rpm for 3 minutes. The cells in the precipitate were lysed with RIPA (25 mM Tris-HCl pH 7.6, 150 mM NaCl, 1% NP-40, 1% sodium deoxycholate, 0.1% SDS, 1× Protease Inhibitor Cocktail), 5× sample buffer was added, and then heated at 100° C. for 15 minutes. The prepared sample was electrophoresed with sodium dodecyl sulfate poly acrylamide gel electrophoresis (SDS-PAGE), and then the proteins in the gel were transferred to a PVDF membrane using Trans-Blot Turbo. The membrane was treated with a 5% bovine serum albumin (BSA) solution and blocked at room temperature for 2 hours, and then Aurora A and R-actin antibodies were diluted in the 5% BSA solution to react with the membrane at 4° C. overnight. After washed with PBST (0.5% Tween20) 5 times, horse radish peroxidase (HRP)-conjugated secondary antibodies were diluted in PBST to react at room temperature for 2 hours, and then washed again with a PBST solution 5 times. After enzyme-substrate reaction was carried out using a HRP substrate, a signal was measured with chemi-doc equipment, and the densitometry of a band corresponding to the Aurora A protein detected in the Preparation Example Compounds was quantitatively analyzed. The case when the degrading capacity of each Aurora A degrader was reduced by less than 40% is indicated as +, the case when the degrading capacity was reduced by 40% to 70% (exclusive of 70) is indicated as ++, the case when the degrading capacity was reduced by 70% or more is indicated as +++ in Tables 20 to 23 below.

The target of assay [2] is T2, BRD4 proteins (Homo sapiens, UniProt O60885).
T2 construct: endogenous in cells; host or cells: MM.1S
The experiment in a line: Degradation of BRD4 protein in MM.1S cell lines (Western blot densitometry). In kind it is cell-based. The conditions noted are these: MM.1S cells, 10 μM, 24 hours. A digest of the protocol:
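MM.1S cells in RPMI-1640 with 10% FBS were treated with each degrader at 10 μM for 24 h. RIPA lysates were analysed by SDS-PAGE/Western blot with β-actin as reference, and BRD4 band densitometry was scored as reduction <40% (+), 40-<70% (++) or ≥70% (+++).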

`COc1cc(Nc2ncc3c(n2)-c2ccc(Cl)cc2C(c2c(F)cccc2OC)=NC3)ccc1C(=O)Nc1ccc(C#CCN)cc1` [1-1″, N-(4-(3-aminoprop-1-yn-1-yl)phenyl)-4-((9-chloro-7-(2-fluoro-6-methoxyphenyl)-5H-benzo[c]pyrimido[4,5-e]azepin-2-yl)amino)-2-methoxybenzamide trifluoroacetic acid]: the Aurora A degradation (%) at 5 µM in assay [1] is above 70%.

As for `COc1cc(Nc2ncc3c(n2)-c2ccc(Cl)cc2C(c2c(F)cccc2OC)=NC3)ccc1C(=O)Nc1cccc(C#CCN)c1` [1-3″, N-(3-(3-aminoprop-1-yn-1-yl)phenyl)-4-((9-chloro-7-(2-fluoro-6-methoxyphenyl)-5H-benzo[c]pyrimido[4,5-e]azepin-2-yl)amino)-2-methoxybenzamide trifluoroacetic acid], the Aurora A degradation (%) at 5 µM in assay [1] was above 70%. On the same count and under the same terms, with `COC(=O)c1ccc(NC(=O)c2ccc(Nc3ncc4c(n3)-c3ccc(Cl)cc3C(c3c(F)cccc3OC)=NC4)cc2OC)cc1C#CCN` [3-25″, methyl 2-(3-aminoprop-1-yn-1-yl)-4-(4-((9-chloro-7-(2-fluoro-6-methoxyphenyl)-5H-benzo[c]pyrimido[4,5-e]azepin-2-yl)amino)-2-methoxybenzamido)benzoate trifluoroacetic acid] the figure was below 40%; with `COc1cc(Nc2ncc3c(n2)-c2ccc(Cl)cc2C(c2c(F)cccc2OC)=NC3)ccc1C(=O)Nc1ccc(C#CC(N)CO)cc1` (stereo not drawn) [3-49″, N-(4-(3-amino-4-hydroxybut-1-yn-1-yl)phenyl)-4-((9-chloro-7-(2-fluoro-6-methoxyphenyl)-5H-benzo[c]pyrimido[4,5-e]azepin-2-yl)amino)-2-methoxybenzamide trifluoroacetic acid], above 70%; with `COc1cc(Nc2ncc3c(n2)-c2ccc(Cl)cc2C(c2c(F)cccc2OC)=NC3)ccc1C(=O)NCC#Cc1ccc(C#CCN)o1` [4-1″, N-(3-(5-(3-aminoprop-1-yn-1-yl)furan-2-yl)prop-2-yn-1-yl)-4-((9-chloro-7-(2-fluoro-6-methoxyphenyl)-5H-benzo[c]pyrimido[4,5-e]azepin-2-yl)amino)-2-methoxybenzamide trifluoroacetic acid], above 70%. Same read-out and setting: with `COc1cc(Nc2ncc3c(n2)-c2ccc(Cl)cc2C(c2c(F)cccc2OC)=NC3)ccc1C(=O)NCCCCCC(=O)Nc1ccc(C#CCN)cc1` [4-165″, N-(6-((4-(3-aminoprop-1-yn-1-yl)phenyl)amino)-6-oxohexyl)-4-((9-chloro-7-(2-fluoro-6-methoxyphenyl)-5H-benzo[c]pyrimido[4,5-e]azepin-2-yl)amino)-2-methoxybenzamide trifluoroacetic acid] the figure was above 70%. `COc1cc(Nc2ncc3c(n2)-c2ccc(Cl)cc2C(c2c(F)cccc2OC)=NC3)ccc1C(=O)NCCCNC(=O)c1ccc(C#CCN)o1` [4-166″, 5-(3-aminoprop-1-yn-1-yl)-N-(3-(4-((9-chloro-7-(2-fluoro-6-methoxyphenyl)-5H-benzo[c]pyrimido[4,5-e]azepin-2-yl)amino)-2-methoxybenzamido)propyl)furan-2-carboxamide trifluoroacetic acid]: the Aurora A degradation (%) at 5 µM in assay [1] is below 40%. On the same count and under the same terms, with `COC(=O)c1ccc(NC(=O)CCCNC(=O)c2ccc(Nc3ncc4c(n3)-c3ccc(Cl)cc3C(c3c(F)cccc3OC)=NC4)cc2OC)cc1C#CCN` [4-228″, methyl 2-(3-aminoprop-1-yn-1-yl)-4-(4-(4-((9-chloro-7-(2-fluoro-6-methoxyphenyl)-5H-benzo[c]pyrimido[4,5-e]azepin-2-yl)amino)-2-methoxybenzamido)butanamido)benzoate trifluoroacetic acid] the figure was 40 to 70%; with `COc1cc(Nc2ncc3c(n2)-c2ccc(Cl)cc2C(c2c(F)cccc2OC)=NC3)ccc1C(=O)NCCCC(=O)Nc1ccc(C#CCN)c(CO)c1` [5-8″, N-(4-((4-(3-aminoprop-1-yn-1-yl)-3-(hydroxymethyl)phenyl)amino)-4-oxobutyl)-4-((9-chloro-7-(2-fluoro-6-methoxyphenyl)-5H-benzo[c]pyrimido[4,5-e]azepin-2-yl)amino)-2-methoxybenzamide trifluoroacetic acid], below 40%.

For `COC(=O)c1ccc(NC(=O)C2CCN(C(=O)C[C@@H]3N=C(c4ccc(Cl)cc4)c4c(sc(C)c4C)-n4c(C)nnc43)CC2)cc1C#CCNC(=O)OC(C)OC(=O)C(C)C` (stereo partly drawn) [5-157′, methyl 4-(1-(2-((S)-4-(4-chlorophenyl)-2,3,9-trimethyl-6H-thieno[3,2-f][1,2,4]triazolo[4,3-a][1,4]diazepin-6-yl)acetyl)piperidine-4-carboxamido)-2-(3-(((1-(isobutyryloxy)ethoxy)carbonyl)amino)prop-1-yn-1-yl)benzoate], the “BRD4 degrading capacity (%)” value in assay [2] is listed as “+++ (the degrading capacity was reduced by 70% or more)”. With `COC(=O)c1ccc(NC(=O)C2CCN(C(=O)C[C@@H]3N=C(c4ccc(Cl)cc4)c4c(sc(C)c4C)-n4c(C)nnc43)CC2)cc1C#CCOS(N)(=O)=O` [5-158′, methyl (S)-4-(1-(2-(4-(4-chlorophenyl)-2,3,9-trimethyl-6H-thieno[3,2-f][1,2,4]triazolo[4,3-a][1,4]diazepin-6-yl)acetyl)piperidine-4-carboxamido)-2-(3-(sulfamoyloxy)prop-1-yn-1-yl)benzoate trifluoroacetic acid], the “BRD4 degrading capacity (%)” value in assay [2] is reported as “+++ (the degrading capacity was reduced by 70% or more)”. In the case of `COC(=O)c1ccc(N2CC3(CN(C(=O)C[C@@H]4N=C(c5ccc(Cl)cc5)c5c(sc(C)c5C)-n5c(C)nnc54)C3)C2)cc1C#CCNC(=O)OC(C)OC(=O)C(C)C` (stereo partly drawn) [5-162′, methyl 4-(6-(2-((S)-4-(4-chlorophenyl)-2,3,9-trimethyl-6H-thieno[3,2-f][1,2,4]triazolo[4,3-a][1,4]diazepin-6-yl)acetyl)-2,6-diazaspiro[3.3]heptan-2-yl)-2-(3-(((1-(isobutyryloxy)ethoxy)carbonyl)amino)prop-1-yn-1-yl)benzoate], in assay [2], the “BRD4 degrading capacity (%)” value was “+++ (the degrading capacity was reduced by 70% or more)”. The same measure, in the same setting: with `COC(=O)c1ccc(N2CCN(CCCNC(=O)C[C@@H]3N=C(c4ccc(Cl)cc4)c4c(sc(C)c4C)-n4c(C)nnc43)CC2)cc1C#CCN.Cl` [5-164′, methyl (S)-2-(3-aminoprop-1-yn-1-yl)-4-(4-(3-(2-(4-(4-chlorophenyl)-2,3,9-trimethyl-6H-thieno[3,2-f][1,2,4]triazolo[4,3-a][1,4]diazepin-6-yl)acetamido)propyl)piperazin-1-yl)benzoate hydrochloride] the entry was “+++ (the degrading capacity was reduced by 70% or more)”; with `COC(=O)c1cc(N2CCN(CCCNC(=O)C[C@@H]3N=C(c4ccc(Cl)cc4)c4c(sc(C)c4C)-n4c(C)nnc43)CC2)ccc1C#CCN.Cl` [5-165′, methyl (S)-2-(3-aminoprop-1-yn-1-yl)-5-(4-(3-(2-(4-(4-chlorophenyl)-2,3,9-trimethyl-6H-thieno[3,2-f][1,2,4]triazolo[4,3-a][1,4]diazepin-6-yl)acetamido)propyl)piperazin-1-yl)benzoate hydrochloride], “+++ (the degrading capacity was reduced by 70% or more)”; with `COC(=O)c1ccc(N2CC3(CCN(C(=O)C[C@@H]4N=C(c5ccc(Cl)cc5)c5c(sc(C)c5C)-n5c(C)nnc54)CC3)C2)cc1C#CCN.Cl` [5-168′, methyl (S)-2-(3-aminoprop-1-yn-1-yl)-4-(7-(2-(4-(4-chlorophenyl)-2,3,9-trimethyl-6H-thieno[3,2-f][1,2,4]triazolo[4,3-a][1,4]diazepin-6-yl)acetyl)-2,7-diazaspiro[3.5]nonan-2-yl)benzoate hydrochloride], “+++ (the degrading capacity was reduced by 70% or more)”.
